Assay results reported in patent US9403850B2, “Beta-lactamase inhibitors” (priority 2013, dated 2016).

Tests used:
[1] = test system: P. aeruginosa Ps296 expressing VIM-2; experiment: Broth microdilution MIC assay, partner meropenem; assay type: cell-based; conditions: Pseudomonas aeruginosa, read-out: MIC of Exemplary Compounds in presence of fixed β-lactams, Fixed Mero, P. aerug. Ps296 VIM-2
[2] = test system: E. coli ESBL4 expressing CTX-M-15; experiment: Broth microdilution MIC assay, partner ceftazidime;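 also: ceftazidime held fixed at 4 µg/mL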; assay type: cell-based; conditions: Escherichia coli, read-out: MIC of Exemplary Compounds in presence of fixed β-lactams, Fixed CAZ, E. coli ESBL4 CTX-M-15
VIM-2 = target: T1, VIM-2 (Escherichia coli, UniProt Q5U7L7); experiment: β-Lactamase enzyme inhibition assay, VIM-2 (nitrocefin substrate); assay type: biochemical; conditions: nitrocefin substrate 100 μM, 15 min preincubation at 37° C.; read-out: IC50, Class B VIM-2
T1 construct: made in house; host or cells: E. coli BL21(DE3)
Procedure, shortened: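 Purified VIM-2 (Q sepharose anion exchange, HEPES pH 7.5) preincubated with inhibitor 15 min at 37° C. Nitrocefin added at 100 μM final; absorbance at 486 nm monitored 10 min. IC50 from inhibition of initial hydrolysis rate versus inhibitor-free controls.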

[3] = test system: K. pneumoniae 156319 expressing KPC-3; experiment: Broth microdilution MIC assay, partner meropenem; assay type: cell-based; conditions: Klebsiella pneumoniae, read-out: MIC of Exemplary Compounds in presence of fixed β-lactams, Fixed Mero, K.P. 156319 KPC-3
[4] = test system: K. pneumoniae A-1797 expressing KPC-2 and VIM-4; experiment: Broth microdilution MIC assay, partner meropenem; assay type: cell-based; conditions: Klebsiella pneumoniae, read-out: MIC of Exemplary Compounds in presence of fixed β-lactams, Fixed Mero, K.P. A-1797 KPC-2 VIM-4
[5] = test system: S. aureus MSSA-7 producing penicillinase PC-1; experiment: Broth microdilution MIC assay, partner piperacillin; assay type: cell-based; conditions: Staphylococcus aureus, fixed piperacillin 4 μg/mL, read-out: MIC of Exemplary Compounds in presence of fixed β-lactams, Fixed Pip, S. aureus MSSA-7 PC-1
[6] = test system: E. cloacae 144200 expressing Class C P99 AmpC; experiment: Broth microdilution MIC assay, partner ceftazidime;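 also: ceftazidime held fixed at 4 µg/mL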; assay type: cell-based; conditions: Enterobacter cloacae, read-out: MIC of Exemplary Compounds in presence of fixed β-lactams, Fixed CAZ, E. cl. 144200 p99 AmpC
SHV-5 = target: T2, SHV-5 (Klebsiella pneumoniae, UniProt P0A3M1); experiment: β-Lactamase enzyme inhibition assay, SHV-5 (cefotaxime substrate); assay type: biochemical; conditions: 15 min preincubation at 37° C., read-out: IC50, Class A SHV-5
T2 construct: expressed as native untagged proteins; made in house; host or cells: E. coli BL21(DE3)
T2 sequence (P0A3M1 22-286): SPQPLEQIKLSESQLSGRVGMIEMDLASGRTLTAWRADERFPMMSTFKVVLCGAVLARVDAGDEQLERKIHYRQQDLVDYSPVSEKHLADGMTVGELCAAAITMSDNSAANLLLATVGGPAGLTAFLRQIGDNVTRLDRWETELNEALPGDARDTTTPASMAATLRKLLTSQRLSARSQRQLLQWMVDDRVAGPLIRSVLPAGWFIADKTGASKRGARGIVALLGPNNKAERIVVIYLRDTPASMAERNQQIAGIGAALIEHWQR
Method: (§1) For SHV-5, Kpc-2, p99AmpC and OXA-1 β-lactamases, E. coli BL21(DE3) bacterial cells carrying expression plasmids (expressed as native untagged proteins) for the individual β-lactamases were grown in 1 L of Superbroth (Teknova Inc. Hollister, CA) supplemented with 100 μg/ml kanamycin selection and 1×5052 (0.5% glycerol, 0.05% glucose and 0.2% α-lactose) at 35° C. for 18-20 hours. Cells were harvested by centrifugation (4,000×g, 4° C., 20 min), resuspended in 50 ml of 10 mM HEPES pH 7.5 (1/20 of the initial volume). The cells were lysed by sonication (5 pulses of 45 seconds) at 45 W on ice. The lysates were clarified by centrifugation at 10,000×g for 40 minutes at 4° C. […] Active fractions were pooled concentrated, quantitated by BCA protein determination (Thermo Scientific, Rockford, Ill.), dialyzed into PBS and frozen at −80° C. in 20% glycerol until use.
(§2) An equal volume of diluted enzyme stock was added, and the plates were incubated at 37° C. for 15 min. […] Absorbance at 486 nm was immediately monitored for 10 min using a Biotek Powerwave XS2 microplate spectrophotometer using the GEN5 softweare package (Biotek Instruments, Winooski Vt.). […] Maximum rates of hydrolysis were compared to those in control wells (without inhibitors), and percentages of enzyme inhibition were calculated for each concentration of inhibitor. […]

KPC-2 = target: T3, KPC-2 (Klebsiella pneumoniae, UniProt Q9F663); experiment: β-Lactamase enzyme inhibition assay, KPC-2 (imipenem substrate); assay type: biochemical; conditions: 15 min preincubation at 37° C., read-out: IC50, Class A KPC-2
T3 construct: expressed as native untagged proteins; made in house; host or cells: E. coli BL21(DE3)
T3 sequence (Q9F663 25-293 limits assumed): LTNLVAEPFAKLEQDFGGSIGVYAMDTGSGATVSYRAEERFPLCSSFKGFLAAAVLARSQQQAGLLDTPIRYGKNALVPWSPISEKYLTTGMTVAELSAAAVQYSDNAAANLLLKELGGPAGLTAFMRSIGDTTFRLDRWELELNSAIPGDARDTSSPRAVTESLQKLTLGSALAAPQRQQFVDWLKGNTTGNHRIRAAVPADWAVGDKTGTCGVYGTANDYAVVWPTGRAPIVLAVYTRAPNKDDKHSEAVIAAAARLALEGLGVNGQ
Method: as §1, §2

p99 AmpC = target: T4, p99 AmpC (Enterobacter cloacae, UniProt P05364); experiment: β-Lactamase enzyme inhibition assay, p99 AmpC (nitrocefin substrate); assay type: biochemical; conditions: nitrocefin substrate 100 μM, 15 min preincubation at 37° C.; read-out: IC50, Class C AmpC
T4 construct: expressed as native untagged proteins; made in house; host or cells: E. coli BL21(DE3)
T4 sequence (P05364 21-381): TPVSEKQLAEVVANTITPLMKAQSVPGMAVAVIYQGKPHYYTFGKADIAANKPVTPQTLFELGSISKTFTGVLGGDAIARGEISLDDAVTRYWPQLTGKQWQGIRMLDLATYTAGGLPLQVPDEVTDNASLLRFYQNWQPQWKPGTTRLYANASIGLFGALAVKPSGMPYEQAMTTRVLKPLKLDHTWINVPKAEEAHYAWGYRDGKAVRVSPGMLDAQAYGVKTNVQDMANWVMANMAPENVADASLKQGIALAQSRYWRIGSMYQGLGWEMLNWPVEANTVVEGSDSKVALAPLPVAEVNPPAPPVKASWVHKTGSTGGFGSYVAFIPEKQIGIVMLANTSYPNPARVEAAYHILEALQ
Method: as §1, §2

OXA-1 = target: T5, OXA-1 (Escherichia coli, UniProt P13661); experiment: β-Lactamase enzyme inhibition assay, OXA-1 (nitrocefin substrate); assay type: biochemical; conditions: nitrocefin substrate 100 μM, 15 min preincubation at 37° C.; read-out: IC50, Class D OXA-1
T5 construct: expressed as native untagged proteins; made in house; host or cells: E. coli BL21(DE3)
T5 sequence (P13661 26-276): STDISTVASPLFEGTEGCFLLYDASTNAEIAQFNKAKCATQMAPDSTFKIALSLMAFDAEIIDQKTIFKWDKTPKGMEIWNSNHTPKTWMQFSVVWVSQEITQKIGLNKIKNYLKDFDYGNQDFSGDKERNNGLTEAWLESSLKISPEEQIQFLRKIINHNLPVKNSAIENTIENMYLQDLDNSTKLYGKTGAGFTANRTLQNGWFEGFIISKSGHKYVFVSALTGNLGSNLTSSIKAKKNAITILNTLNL
Method: as §1, §2

Structure (SMILES) | MIC [1] [µg/mL] | MIC [2] [µg/mL] | IC50 (VIM-2) [nM] | MIC [3] [µg/mL] | MIC [4] [µg/mL] | MIC [5] [µg/mL] | MIC [6] [µg/mL] | IC50 (SHV-5) [nM] | IC50 (KPC-2) [nM] | IC50 (p99 AmpC) [nM] | IC50 (OXA-1) [nM]
O=C(Cc1ccc2c(c1)CNC2)N[C@H]1Cc2cccc(C(=O)O)c2OB1O [Example 36, (3R)-2-hydroxy-3-[(2-isoindolin-5-ylacetyl)amino]-3,4-dihydro-1,2-benzoxaborinine-8-carboxylic acid] | < 4 | < 4 | 100 to 1000 | < 4 | > 32 | < 4 | < 4 | < 100 | < 100 | < 100 | < 100
O=C(O)c1ccccc1C(=O)N[C@H]1Cc2cccc(C(=O)O)c2OB1O [Example 53, (R)-3-(2-carboxybenzamido)-2-hydroxy-3,4-dihydro-2H-benzo[e][1,2]oxaborinine-8-carboxylic acid] | > 32 | < 4 | 1000 to 10000 | < 4 | 8 to 32 | < 4 | < 4 |  |  |  | 
NCCNC(=O)c1ccccc1C(=O)N[C@H]1Cc2cccc(C(=O)O)c2OB1O [Example 54, (R)-3-(2-(2-aminoethylcarbamoyl)benzamido)-2-hydroxy-3,4-dihydro-2H-benzo[e][1,2]oxaborinine-8-carboxylic acid] | < 4 | < 4 | 1000 to 10000 | 8 to 32 | > 32 | > 32 | < 4 |  |  |  | 
CC(C)NCc1cc(C(=O)N[C@H]2Cc3cccc(C(=O)O)c3OB2O)ccc1CN [Example 55, (R)-3-(4-(aminomethyl)-3-((isopropylamino)methyl)benzamido)-2-hydroxy-3,4-dihydro-2H-benzo[e][1,2]oxaborinine-8-carboxylic acid] | < 4 | < 4 | 100 to 1000 | 8 to 32 | > 32 | > 32 | < 4 |  |  |  | 
CC(C)NCc1ccc(C(=O)N[C@H]2Cc3cccc(C(=O)O)c3OB2O)cc1CNC(C)C [Example 56, (R)-3-(3,4-bis((isopropylamino)methyl)benzamido)-2-hydroxy-3,4-dihydro-2H-benzo[e][1,2]oxaborinine-8-carboxylic acid] | < 4 | < 4 | 100 to 1000 | < 4 | < 4 | < 4 | < 4 |  |  |  | 
NCCNc1ccc(CC(=O)N[C@H]2Cc3cccc(C(=O)O)c3OB2O)cc1 [Example 57, (R)-3-(2-(4-(2-aminoethylamino)phenyl)acetamido)-2-hydroxy-3,4-dihydro-2H-benzo[e][1,2]oxaborinine-8-carboxylic acid] | < 4 | < 4 | 1000 to 10000 | 8 to 32 | < 4 | < 4 | < 4 |  |  |  | 
NCCOc1ccc(CC(=O)N[C@H]2Cc3cccc(C(=O)O)c3OB2O)cc1OCCN [Example 58, (R)-3-(2-(3,4-bis(2-aminoethoxy)phenyl)acetamido)-2-hydroxy-3,4-dihydro-2H-benzo[e][1,2]oxaborinine-8-carboxylic acid] | < 4 | < 4 | 100 to 1000 | < 4 | 8 to 32 | < 4 | < 4 |  |  |  | 
NCCOc1ccc(CC(=O)N[C@H]2Cc3cccc(C(=O)O)c3OB2O)cc1O [Example 59, (R)-3-(2-(4-(2-aminoethoxy)-3-hydroxyphenyl)acetamido)-2-hydroxy-3,4-dihydro-2H-benzo[e][1,2]oxaborinine-8-carboxylic acid] | < 4 | < 4 | 100 to 1000 | < 4 | 8 to 32 | < 4 | < 4 |  |  |  | 
NCCNc1ccc(CC(=O)N[C@H]2Cc3cccc(C(=O)O)c3OB2O)cn1 [Example 60, (R)-3-(2-(6-(2-aminoethylamino)pyridin-3-yl)acetamido)-2-hydroxy-3,4-dihydro-2H-benzo[e][1,2]oxaborinine-8-carboxylic acid] | < 4 | < 4 | 100 to 1000 | < 4 | 8 to 32 | < 4 | < 4 |  |  |  | 
NCCNc1ccc(CC(=O)N[C@H]2Cc3cccc(C(=O)O)c3OB2O)c[n+]1[O-] [Example 61, (R)-2-(2-aminoethylamino)-5-(2-(8-carboxy-2-hydroxy-3,4-dihydro-2H-benzo[e][1,2]oxaborinin-3-ylamino)-2-oxoethyl)pyridine 1-oxide] | < 4 | < 4 | 100 to 1000 | < 4 | < 4 | < 4 | < 4 |  |  |  | 
NCc1cc(C(=O)N[C@H]2Cc3cccc(C(=O)O)c3OB2O)cnc1CN [Example 62, (R)-3-(5,6-bis(aminomethyl)nicotinamido)-2-hydroxy-3,4-dihydro-2H-benzo[e][1,2]oxaborinine-8-carboxylic acid] | < 4 | < 4 | 100 to 1000 | < 4 | < 4 | < 4 | < 4 |  |  |  | 
NCc1cnc(C(=O)N[C@H]2Cc3cccc(C(=O)O)c3OB2O)cc1CN [Example 63] | < 4 | < 4 | < 100 | < 4 | < 4 | < 4 | < 4 |  |  |  | 
